Laboratory results reported in patent US8101766B2, “Crystalline form of a biphenyl compound” (Theravance, Inc., priority 2004, dated 2012).

What was measured:
cM5 receptor = molecular target: T1, cM5 receptor (Pan troglodytes, UniProt Q5IS53); assay: Blockade of agonist-mediated calcium release via FLIPR assay (cM5); type: cell-based, chimpanzee; details: CHO cells stably expressing cM5
T1 construct: expressed in transfected cells
T1 sequence (Q5IS53 1-532): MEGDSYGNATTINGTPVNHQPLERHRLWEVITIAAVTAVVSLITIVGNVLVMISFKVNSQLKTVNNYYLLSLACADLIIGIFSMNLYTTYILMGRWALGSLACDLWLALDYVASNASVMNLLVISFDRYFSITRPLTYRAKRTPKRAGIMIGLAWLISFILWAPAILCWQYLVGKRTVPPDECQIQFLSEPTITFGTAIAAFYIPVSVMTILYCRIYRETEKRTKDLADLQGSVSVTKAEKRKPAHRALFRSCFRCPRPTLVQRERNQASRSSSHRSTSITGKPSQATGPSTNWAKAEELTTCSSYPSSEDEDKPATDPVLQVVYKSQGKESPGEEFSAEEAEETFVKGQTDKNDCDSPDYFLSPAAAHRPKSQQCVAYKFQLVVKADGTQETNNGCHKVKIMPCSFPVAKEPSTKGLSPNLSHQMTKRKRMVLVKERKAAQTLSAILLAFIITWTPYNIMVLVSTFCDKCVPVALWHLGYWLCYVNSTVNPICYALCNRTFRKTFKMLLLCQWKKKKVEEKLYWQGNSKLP
From the text: B. Blockade of Agonist-Mediated Calcium Release Via FLIPR Assays
Muscarinic receptor subtypes (M1, M3 and M5 receptors), which couple to Gq proteins, activate the phospholipase C (PLC) pathway upon agonist binding to the receptor. As a result, activated PLC hydrolyzes phosphatyl inositol diphosphate (PIP2) to diacylglycerol (DAG) and phosphatidyl-1,4,5-triphosphate (IP3), which in turn generates calcium release from intracellular stores, i.e., endoplasmic and sarcoplasmic reticulum. […] This fluorescence event is measured in real time by the FLIPR, which detects the change in fluorescence from a monolayer of cells cloned with human M1 and M3, and chimpanzee M5 receptors. Antagonist potency can be determined by the ability of antagonists to inhibit agonist-mediated increases in intracellular calcium. […]
To determine antagonist potency, the dose-dependent stimulation of intracellular Ca^2+ release for oxotremorine was first determined so that antagonist potency can later be measured against oxotremorine stimulation at an EC90 concentration. […]
The parameters used for the FLIPR were: exposure length of 0.4 seconds, laser strength of 0.5 watts, excitation wavelength of 488 nm, and emission wavelength of 550 nm. Baseline was determined by measuring the change in fluorescence for 10 seconds prior to addition of agonist. […]

hM2 receptor = molecular target: T2, hM2 receptor (Homo sapiens, UniProt P08172); assay: Blockade of oxotremorine-stimulated [35S]GTPγS binding in CHO-K1 cells expressing the hM2 receptor; type: biochemical
T2 construct: expressed in transfected cells
T2 sequence (P08172 1-466): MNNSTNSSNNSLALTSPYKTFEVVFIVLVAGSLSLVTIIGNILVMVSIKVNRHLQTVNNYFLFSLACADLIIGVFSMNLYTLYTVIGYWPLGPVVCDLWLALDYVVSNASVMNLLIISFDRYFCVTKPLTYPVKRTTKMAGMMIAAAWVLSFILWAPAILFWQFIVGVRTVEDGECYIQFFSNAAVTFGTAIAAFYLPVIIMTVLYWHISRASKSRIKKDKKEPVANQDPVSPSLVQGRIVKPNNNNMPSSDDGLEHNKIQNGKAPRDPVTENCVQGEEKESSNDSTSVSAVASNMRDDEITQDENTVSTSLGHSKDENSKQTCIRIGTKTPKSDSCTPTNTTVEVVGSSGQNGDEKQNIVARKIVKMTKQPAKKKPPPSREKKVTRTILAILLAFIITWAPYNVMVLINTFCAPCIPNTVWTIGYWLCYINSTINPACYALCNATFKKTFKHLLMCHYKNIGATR
Description: A. Blockade of Agonist-Mediated [^35S]GTPγS Binding
The functional potency of a test compound was determined by measuring the ability of the compound to block oxotremorine-stimulated [^35S]GTPγS binding in CHO-K1 cells expressing the hM2 receptor.
At the time of use, frozen membranes were thawed and then diluted in assay buffer with a final target tissue concentration of 5-10 μg protein per well. The membranes were briefly homogenized using a Polytron PT-2100 tissue disrupter and then added to the assay plates.
The assay plates were then incubated at 37° C. for 60 minutes. The assay plates were filtered over 1% BSA-pretreated GF/B filters using a PerkinElmer 96-well harvester. The plates were rinsed with ice-cold wash buffer for 3×3 seconds and then air or vacuum dried. Microscint-20 scintillation liquid (50 μL) was added to each well, and each plate was sealed and radioactivity counted on a Topcounter (PerkinElmer). Data were analyzed by nonlinear regression analysis with the GraphPad Prism Software package (GraphPad Software, Inc., San Diego, Calif.) using the non-linear regression, one-site competition equation. The Cheng-Prusoff equation was used to calculate the Ki, using the IC50 values of the concentration-response curve for the test compound and the oxotremorine concentration in the assay as the KD and [L], ligand concentration, respectively.

β2 adrenergic receptor = β2 adrenergic receptor (Homo sapiens, UniProt P07550); assay: Radioligand binding assay for human β2 adrenergic receptor; set-up: expressed in transfected cells; details: radioligand displacement, CHO cell membranes
Description: The cell monolayer was lifted with 2 mM EDTA in PBS. […] All membranes were stored frozen in aliquots at −80° C. or used immediately.

Measured: Ki

Chain of β2 adrenergic receptor (P07550 whole entry): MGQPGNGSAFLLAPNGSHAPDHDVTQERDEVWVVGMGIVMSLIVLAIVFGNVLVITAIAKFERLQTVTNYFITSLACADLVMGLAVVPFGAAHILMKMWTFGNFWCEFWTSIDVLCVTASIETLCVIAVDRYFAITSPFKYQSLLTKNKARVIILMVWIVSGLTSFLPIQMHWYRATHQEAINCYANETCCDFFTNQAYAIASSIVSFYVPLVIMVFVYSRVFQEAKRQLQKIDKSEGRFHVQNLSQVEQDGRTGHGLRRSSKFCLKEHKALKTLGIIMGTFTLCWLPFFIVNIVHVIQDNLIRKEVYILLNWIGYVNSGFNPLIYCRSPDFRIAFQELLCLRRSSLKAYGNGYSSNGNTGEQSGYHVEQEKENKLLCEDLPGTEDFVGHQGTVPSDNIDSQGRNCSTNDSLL

COc1cc(NC(=O)CCN2CCC(OC(=O)Nc3ccccc3-c3ccccc3)CC2)c(Cl)cc1CNC[C@H](O)c1ccc(O)c2[nH]c(=O)ccc12 [compound of formula I, biphenyl-2-ylcarbamic acid 1-[2-(2-chloro-4-{[(R)-2-hydroxy-2-(8-hydroxy-2-oxo-1,2-dihydroquinolin-5-yl)ethylamino]methyl}-5-methoxyphenylcarbamoyl)ethyl]piperidin-4-yl ester]
< 10 nM: all assays above
